Experimental data reported in patent US9834514B2, “Antibiotic sensitivity-restoring and photosensitive agents” (New Mexico Tech Research Foundation, priority 2015, dated 2017).
Values after ≈ are worked out from the molar mass of the structure shown.

How the values were obtained:
efflux pumps of MRSA = assay: Fluorescent competition assay of compound 1 versus INF-55 and reserpine; assay type: binding; settings: compound 1 at 5 μM
Description: INF-55 and reserpine, NorA EPIs, were used to compete with compound 1 for binding sites on MRSA. Since compound 1 is highly fluorescent, binding could be assessed by measuring the fluorescence at excitation wavelengths of 345 nm, 380 nm, 407 nm, and an emission wavelength of 508 nm. Fluorescent readings were taken every minute for 30 minutes at a lamp energy of 20,000 CW. MRSA cells (about 10^8 CFU/mL) were pelleted at 7500 rpm and resuspended in 1×PBS. The MRSA cells were then pretreated with the appropriate EPI at varying concentrations and incubated for 30 minutes at 37° C. at 150 rpm on a rotary shaker.
INF-55 (FIG. 2) and reserpine (FIG. 3) were added at 1 μM, 10 μM, 50 μM, and 100 μM. After incubation with the appropriate EPI, compound 1 was added at 5 μM and the samples were incubated for 10 minutes. The samples were then placed in a fluorescent plate reader for analysis. The controls used were as follows: 1×PBS, compound 1 (5 μM) in 1×PBS, each respective concentration of the EPI in 1×PBS, compound 1 (5 μM) added to MRSA cells, and each respective EPI added to MRSA cells. The instrument baseline fluorescence drift was corrected by subtracting the fluorescence measured at each time point for the 1×PBS control sample. The error bars represent data from three independent measurements.

[1] = system: S. pyogenes (ATCC No. 8133); assay: Light-activated killing, colony counts; assay type: cell-based; settings: for Dark Toxicity: no light; for Light Toxicity: white light 2 minutes
Description: Dose-dependent effects of treating bacteria with compound 1 and irradiation with white light were assessed by treating 10^8 CFU/mL of cells with compound 1, followed by irradiation with white light for 2 minutes. Compound 1 was added at a specific concentration to 1 mL of a 10^8 CFU/mL suspension of the respective bacterial cells, and the cells were incubated at 37° C. for approximately 45 minutes on a rotary shaker at 150 rpm. 0.5 mL of the cell suspension was removed and placed into the wells of a sterile ceramic drop plate, and then the cells were irradiated with white light from a Lumacare™ LC 122A light source for 2 minutes at a distance of approximately 3 cm. The time and distance of the light application delivered about 85 J/cm^2 of 400-700 nm light to the sample. After being irradiated, ten-fold dilutions were made of each cell sample. The dilutions were drip-streaked onto a tryptic soy agar (TSA) plate and incubated at 37° C. for 18-24 hours. Enumeration of bacteria was determined from the dilution, which produced a drip-streak containing approximately 30-300 colonies. After counting the colonies, the CFU/mL was calculated by applying the respective dilution factor and a factor of 100 to account for the 10 μL of sample taken. Appropriate controls were prepared, including cells with no treatment, cells with only compound 1 added, and cells only treated with light.
The error bars in FIG. 12 represent the variations between three replicate determinations.

Gram-positive bacteria = assay: Bacterial patterning (chessboard mask) with light and compound 1; assay type: cell-based
Description: A chessboard mask was then placed on top of the agar plate. […] The agar plate was then inoculated with bacteria and incubated overnight at 37° C.

MRSA (ATCC No. BAA-44) = assay: Potentiation of antibiotic activity with 10 μM compound 1 (CFU/mL); assay type: cell-based, S. aureus
Description: The MICs for the antibiotics in the absence of compound 1 were calculated by adjusting the cells to 5×10^5 CFU/mL with McFarland Turbidity Standard (0.5) followed by the addition of an antibiotic. The cells were then incubated at 37° C. for 18 hours on a rotary shaking incubator at 100 rpm. Finally, MTT was added to the cells to assess viability.
To assess the potentiation of antibiotic activity, the cells were adjusted to 5×10^5 CFU/mL with McFarland Turbidity Standard (0.5). Compound 1 was then added at 10 μM, and the cells were incubated at 37° C. for 45 minutes. The desired antibiotic was then added at three sub-inhibitory concentrations, and the cells were incubated at 37° C. for 18 hours on a rotary shaking incubator at 100 rpm. The samples were then diluted ten-fold, drip streaked onto a TSA plate, and incubated for 18 hours at 37° C. The resulting cell colonies were counted, and the CFU/mL values were calculated.

MRSA = assay: Checkerboard assay (FICI); assay type: cell-based, S. aureus
Description: (§1) Another method for determining synergy is a checkerboard assay. A checkerboard assay is performed whereby one of the test compounds is serially diluted horizontally across a plate, while the other test compound is serially diluted vertically down the plate. The perpendicular serial dilutions result in combinations of the compounds that range in concentrations from the highest to the lowest of each compound added. In the present study, the checkerboard assay method was adjusted by serially diluting one of the test compounds horizontally and adding the second drug to each well at a concentration of ¼ MIC. The 24-well microtiter plate was then incubated at 37° C. for 18-24 hours on a rotary shaker incubator at 150 rpm. After incubation, MTT reagent was added to each well at a 10% sample volume. Synergy was determined on the lowest concentration of the combined drugs, which produced no purple coloring. Calculation of synergy was determined by the Fractional Inhibitory Concentration Index (FICI): FICI=([Drug 1]Synergy/[Drug1]MIC)+([Drug 2]Synergy/[Drug 2]MIC). FICI≦0.5 is an indication of synergy.
(§2) TABLE 17 details the obtained FICI values for compound 1 in combination with varying antibiotics against MRSA, A. baumannii, and E. coli.

A. baumannii = assay: Checkerboard assay (FICI); assay type: cell-based; settings: with PMB
Description: as §1, §2

E. coli = assay: Checkerboard assay (FICI); assay type: cell-based; settings: with PMB
Description: as §1, §2

SMILES: Clc1ccc(/C=C/c2[nH]c3ccccc3c2/C=C/c2ccc(Cl)cc2)cc1 [Compound 1]
- competition with INF-55 for binding (fluorescence) (efflux pumps of MRSA; INF-55 1-100 μM, FIG. 2): able to compete with INF-55 for binding to the efflux pumps of MRSA
- competition with reserpine for binding (fluorescence) (efflux pumps of MRSA; reserpine 1-100 μM, FIG. 3): able to compete with reserpine for binding to the efflux pumps of MRSA
- Dark Toxicity ([1]; 0.1 μM): 7.13 × 10^6 ± 1.10 × 10^6 CFU/mL
- Light Toxicity ([1]; 0.1 μM): None Detected (<100 CFU/mL)
- Dark Toxicity ([1]; 0.5 μM): 1.40 × 10^6 ± 7.05 × 10^5 CFU/mL
- Light Toxicity ([1]; 0.5 μM): None Detected (<100 CFU/mL)
- Dark Toxicity ([1]; 1.0 μM): 4.13 × 10^6 ± 9.07 × 10^5 CFU/mL
- Light Toxicity ([1]; 1.0 μM): None Detected (<100 CFU/mL)
- Dark Toxicity ([1]; 5.0 μM): 5.01 × 10^5 ± 4.07 × 10^5 CFU/mL
- Light Toxicity ([1]; 5.0 μM): None Detected (<100 CFU/mL)
- MIC (Gram-positive bacteria): 400 µM (≈ 156 µg/mL)
- bacterial growth on irradiated agar plate (Gram-positive bacteria; agar with 20 μM compound 1, white light through chessboard mask, FIG. 5): inhibition of bacterial growth in the illuminated parts of the agar plate
- potentiation of tetracycline (CFU/mL) (MRSA (ATCC No. BAA-44); FIG. 18): tetracycline was more efficacious in cell killing in the presence of compound 1
- potentiation of doxycycline (CFU/mL) (MRSA (ATCC No. BAA-44); FIG. 19): doxycycline was more efficacious in cell killing in the presence of compound 1
- potentiation of norfloxacin (CFU/mL) (MRSA (ATCC No. BAA-44); FIG. 20): norfloxacin was more efficacious in cell killing in the presence of compound 1
- potentiation of dicloxicillin (CFU/mL) (MRSA (ATCC No. BAA-44); FIG. 21): dicloxicillin was more efficacious in cell killing in the presence of compound 1
- potentiation of oxacillin (CFU/mL) (MRSA (ATCC No. BAA-44); FIG. 22): oxacillin was more efficacious in cell killing in the presence of compound 1
- potentiation of penicillin G (CFU/mL) (MRSA (ATCC No. BAA-44); FIG. 23): penicillin G was more efficacious in cell killing in the presence of compound 1
- potentiation of tobramycin (CFU/mL) (MRSA (ATCC No. BAA-44); FIG. 24): tobramycin was more efficacious in cell killing in the presence of compound 1
- potentiation of vancomycin (CFU/mL) (MRSA (ATCC No. BAA-44); FIG. 25): vancomycin was more efficacious in cell killing in the presence of compound 1
- FIC Index (MRSA; with Amoxicillin): 0.3
- FIC Index (MRSA; with Ampicillin): 0.13
- FIC Index (MRSA; with Dicloxicillin): 0.04
- FIC Index (MRSA; with Norfloxacin): 0.3
- FIC Index (MRSA; with Tetracycline): 0.4
- FIC Index (A. baumannii): 0.1
- FIC Index (E. coli): 0.2
